Laboratory results reported in patent US20090169472A1, “METHODS AND COMPOSITIONS FOR TREATING IMMUNE DISORDERS” (CANCER RESEARCH TECHNOLOGY LTD., priority 2005, published 2009).
Oligonucleotides are written 5' to 3', each unit as a sugar letter and its base; * is a phosphorothioate linkage, no mark a phosphodiester; rarer units and linkages stand in square brackets, end groups in braces. Plain capitals give the bases only. r = 2'-OH (RNA)

System: Flt3L-DC
Test: Flt3L-DC activation assay (cytokines in supernatant by sandwich ELISA)
Format: cell-based, mouse
Conditions: for IFNα induction by Flt3L-DC compared with polyUs-21 (reference TLR7 ligand): comparison in words; for ability to stimulate TLR7: summary statement on oligonucleotides of Table 1; for IFNα induction by Flt3L-DC: oligonucleotide/PEI complexes, C57BL/6 Flt3L-DC, overnight culture, result in words; for levels of IFNα compared with polyUs-21: at higher concentrations; for IFNα production: phosphodiester RNA of undefined length, previous experiments; for fold less potent in inducing IFNα by Flt3L-DC than the 21-mer (polyUo-21): phosphodiester polyU RNA, shift in the dose response
Experimental: Flt3L-DC were generated from bone marrow cell suspensions in RPMI 1640 medium containing 10% fetal calf serum, 2 mM glutamine, 100 units/ml penicillin, 100 μg/ml streptomycin, 50 μM 2-mercaptoethanol and 50 ng/ml murine Flt3L (R&D systems) and were used at day 10 or 11 of cultures.
For stimulation with oligonucleotides, 2×10^5 Flt3L-DC were seeded in triplicate in 96-well-plates. Oligonucleotides were added and cells were cultured overnight in a final volume of 200 μl. Controls contained medium alone, 0.5 μg/ml CpG 1668, 100 mM loxoribine or 1 μM R848.
For stimulation with oligonucleotides other than CpG 1668, different doses of each test oligonucleotides were diluted in 150 mM NaCl solution and mixed with an equal volume of 150 mM NaCl solution+/−polytheylenimine (PEI; 3 μl/ml PEI were used irrespective of the RNA dose). After 15 min incubation at room temperature, oligonucleotide/PEI complexes were added to cells. Supernatants were collected after 18-20 hr of culture and levels of IFNα, IL-6 and IL-12 p40 were determined by sandwich ELISA.

## C=CCn1c(=O)n([C@@H]2O[C@H](CO)[C@@H](O)[C@H]2O)c2nc(N)[nH]c(=O)c21 [loxoribine, reference compound]
Ligands at concentrations of maximum cytokine induction, compared with polyUs-21/PEI
  IL-6 induction by Flt3L-DC: better inducers of IL-6 than polyUs-21

## SSD8: phosphorothioate RNA 21-mer CCUUUCCUUUCUUUCCUUUCC, 4x triple U, SEQ ID NO 12 (rC*rC*rU*rU*rU*rC*rC*rU*rU*rU*rC*rU*rU*rU*rC*rC*rU*rU*rU*rC*rC)
PEI complexes
  IFNα induction compared among SSD8, SSD9 and SSD10 (four, three or two uridine triplets): Differences between oligonucleotides SSD8 and SSD9 were only marginal
  potency in inducing IFNα, no uridine at the ends (SSD8, SSD14) compared with uridine at the ends (SSD13, SSD15): slightly more potent in inducing IFNα
  shift of the dose response, no uridine at the ends (SSD8, SSD14) compared with uridine at the ends (SSD13, SSD15): nearly half a logarithmic scale
  IFNα induction by Flt3L-DC compared with polyUs-21 (reference TLR7 ligand): lower levels of IFNα than the 21-mer oligonucleotide consisting entirely of uridine nucleotides
  ability to stimulate TLR7: capable of stimulating TLR7

## SSD9: phosphorothioate RNA 21-mer CCCCCCCUUUCUUUCCUUUCC, 3x triple U, SEQ ID NO 13 (rC*rC*rC*rC*rC*rC*rC*rU*rU*rU*rC*rU*rU*rU*rC*rC*rU*rU*rU*rC*rC)
PEI complexes
  IFNα induction compared among SSD8, SSD9 and SSD10 (four, three or two uridine triplets): Differences between oligonucleotides SSD8 and SSD9 were only marginal
  IFNα induction by Flt3L-DC compared with polyUs-21 (reference TLR7 ligand): lower levels of IFNα than the 21-mer oligonucleotide consisting entirely of uridine nucleotides
  ability to stimulate TLR7: capable of stimulating TLR7

## SSD10: phosphorothioate RNA 21-mer CCCCCCCUUUCUUUCCCCCCC, 2x triple U, SEQ ID NO 14 (rC*rC*rC*rC*rC*rC*rC*rU*rU*rU*rC*rU*rU*rU*rC*rC*rC*rC*rC*rC*rC)
PEI complexes
  IFNα induction compared among SSD8, SSD9 and SSD10 (four, three or two uridine triplets): slightly reduced
  IFNα induction by Flt3L-DC compared with polyUs-21 (reference TLR7 ligand): lower levels of IFNα than the 21-mer oligonucleotide consisting entirely of uridine nucleotides
  ability to stimulate TLR7: capable of stimulating TLR7

## SSD13: phosphorothioate RNA 21-mer UUUCCCUUUCCCUUUCCCUUU, 4x triple U, SEQ ID NO 15 (rU*rU*rU*rC*rC*rC*rU*rU*rU*rC*rC*rC*rU*rU*rU*rC*rC*rC*rU*rU*rU)
  ability to stimulate TLR7: capable of stimulating TLR7

## SSD14: phosphorothioate RNA 21-mer CCUUCCUUCCUUCCUUCCUUC, 5x double U, no U at the end, SEQ ID NO 16 (rC*rC*rU*rU*rC*rC*rU*rU*rC*rC*rU*rU*rC*rC*rU*rU*rC*rC*rU*rU*rC)
PEI complexes
  potency in inducing IFNα, no uridine at the ends (SSD8, SSD14) compared with uridine at the ends (SSD13, SSD15): slightly more potent in inducing IFNα
  shift of the dose response, no uridine at the ends (SSD8, SSD14) compared with uridine at the ends (SSD13, SSD15): nearly half a logarithmic scale
  ability to stimulate TLR7: capable of stimulating TLR7

## SSD15: phosphorothioate RNA 21-mer UUCCCUUCCCUUCCUUCCCUU, 5x double U with U at the end, SEQ ID NO 17 (rU*rU*rC*rC*rC*rU*rU*rC*rC*rC*rU*rU*rC*rC*rU*rU*rC*rC*rC*rU*rU)
  ability to stimulate TLR7: capable of stimulating TLR7

## SSD21: phosphorothioate RNA 21-mer CCCCCUUUCUUUCUUUCCCCC, 3x triple U, one C apart, SEQ ID NO 18 (rC*rC*rC*rC*rC*rU*rU*rU*rC*rU*rU*rU*rC*rU*rU*rU*rC*rC*rC*rC*rC)
PEI complexes
  IFNα levels compared within the group SSD21-SSD25 (three uridine triplets, one to five cytosines apart): induced the highest levels of IFNα in this group of oligonucleotides
  IFNα induction by Flt3L-DC compared with polyUs-21 (reference TLR7 ligand): less efficient in IFNα induction than polyUs-21
  ability to stimulate TLR7: capable of stimulating TLR7

## SSD22: phosphorothioate RNA 21-mer CCCCUUUCCUUUCCUUUCCCC, 3x triple U, two C apart, SEQ ID NO 19 (rC*rC*rC*rC*rU*rU*rU*rC*rC*rU*rU*rU*rC*rC*rU*rU*rU*rC*rC*rC*rC)
  ability to stimulate TLR7: capable of stimulating TLR7

## SSD23: phosphorothioate RNA 21-mer CCCUUUCCCUUUCCCUUUCCC, 3x triple U, three C apart, SEQ ID NO 20 (rC*rC*rC*rU*rU*rU*rC*rC*rC*rU*rU*rU*rC*rC*rC*rU*rU*rU*rC*rC*rC)
  ability to stimulate TLR7: capable of stimulating TLR7

## SSD24: phosphorothioate RNA 21-mer CCUUUCCCCUUUCCCCUUUCC, 3x triple U, four C apart, SEQ ID NO 21 (rC*rC*rU*rU*rU*rC*rC*rC*rC*rU*rU*rU*rC*rC*rC*rC*rU*rU*rU*rC*rC)
  ability to stimulate TLR7: capable of stimulating TLR7

## SSD25: phosphorothioate RNA 21-mer CUUUCCCCCUUUCCCCCUUUC, 3x triple U, five C apart, SEQ ID NO 22 (rC*rU*rU*rU*rC*rC*rC*rC*rC*rU*rU*rU*rC*rC*rC*rC*rC*rU*rU*rU*rC)
  IFNα induction by Flt3L-DC: hardly any measurable levels of IFNα were induced

## SSD27: phosphorothioate RNA 21-mer CUCUCUCUCUCUCUCUCUCUC, 10x single U, one C apart, SEQ ID NO 23 (rC*rU*rC*rU*rC*rU*rC*rU*rC*rU*rC*rU*rC*rU*rC*rU*rC*rU*rC*rU*rC)
  IFNα induction by Flt3L-DC: comparably poor in inducing IFNα

## SSD28: phosphorothioate RNA 21-mer CCCCUUCUUCUUCUUCUUCCC, 5x double U, one C apart, SEQ ID NO 24 (rC*rC*rC*rC*rU*rU*rC*rU*rU*rC*rU*rU*rC*rU*rU*rC*rU*rU*rC*rC*rC)
PEI complexes
  levels of IFNα compared with polyUs-21: comparable to the polyUs-21 oligonucleotide
  IFNα induction by Flt3L-DC: very potent in inducing IFNα
  ability to stimulate TLR7: capable of stimulating TLR7

## SSD29: phosphorothioate RNA 21-mer CCCCCCUUUUUUUUUUCCCCC, 10x U in a string, SEQ ID NO 25 (rC*rC*rC*rC*rC*rC*rU*rU*rU*rU*rU*rU*rU*rU*rU*rU*rC*rC*rC*rC*rC)
PEI complexes
  levels of IFNα compared with polyUs-21: comparable to the polyUs-21 oligonucleotide
  IFNα induction by Flt3L-DC: very potent in inducing IFNα
  ability to stimulate TLR7: capable of stimulating TLR7

## polyA [reference compound]
  IFNα production: neither polyA nor polyC phosphodiester RNA of undefined length triggered IFNα production

## polyC [reference compound]
  IFNα production: neither polyA nor polyC phosphodiester RNA of undefined length triggered IFNα production

## polyTs-21: polyT RNA 21-mer, phosphorothioate bonds, SEQ ID NO 28 (TTTTTTTTTTTTTTTTTTTTT; RNA, all phosphorothioate, T or U not given here; further chemistry not fully specified)
  IFNα induction by Flt3L-DC: unable to induce measurable levels of IFNα at any of the tested concentrations

## polyUo-10: polyU RNA 10-mer, phosphodiester bonds, SEQ ID NO 4 (UUUUUUUUUU; unmodified RNA)
PEI complexes
  fold less potent in inducing IFNα by Flt3L-DC than the 21-mer (polyUo-21): approximately 20 ×
  ability to stimulate TLR7: capable of stimulating TLR7

## polyUo-15: polyU RNA 15-mer, phosphodiester bonds, SEQ ID NO 3 (UUUUUUUUUUUUUUU; unmodified RNA)
PEI complexes
  fold less potent in inducing IFNα by Flt3L-DC than the 21-mer (polyUo-21): approximately 20 ×
  ability to stimulate TLR7: capable of stimulating TLR7
